Data from patent US10294202B2, “Pyrrolidinones as herbicides” (FMC Corporation, priority 2013, dated 2019).

Legend:
[1] = system: ragweed; assay: Test A pre-/postemergence herbicide test; assay type: in vivo, Ambrosia elatior
How it was run: (§1)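 Planted in loam–sand blend; treated the same day preemergence by directed soil spray, while separately grown plants at one- to two-leaf stage got postemergence spray. Compared visually with untreated controls after approximately 10 days; 100 means complete control.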

[2] = system: wheat; assay: Test A pre-/postemergence herbicide test; assay type: in vivo, Triticum aestivum; settings: Postemergence
How it was run: as §1

[3] = system: corn; assay: Test A pre-/postemergence herbicide test; assay type: in vivo, Zea mays; settings: Postemergence
How it was run: as §1

[4] = system: sedge, umbrella; assay: Test B flooded paddy test; assay type: in vivo, Cyperus difformis; settings: 500 g ai/ha, Flood; scale of 0 to 100 where 0 is no effect and 100 is complete control
How it was run: (§2)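 In-water application to pots flooded 3 cm deep, plants at 2-leaf stage. Held in greenhouse 13–15 days at constant flood depth. Scored 0–100 by eye against controls.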

[5] = system: ryegrass, Italian; assay: Test A pre-/postemergence herbicide test; assay type: in vivo, Lolium multiflorum
How it was run: as §1

[6] = system: blackgrass; assay: Test A postemergence herbicide test; assay type: in vivo, Alopecurus myosuroides
How it was run: (§3)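 Potted in loam soil/sand blend; postemergence application at 1–2 leaf stage (2–10 cm). Greenhouse ~10 d. Visual injury vs untreated, 0–100 scale; 100 = complete control.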

[7] = system: kochia; assay: Test A pre-/postemergence herbicide test; assay type: in vivo, Kochia scoparia
How it was run: as §1

[8] = system: barnyardgrass; assay: Test B flooded paddy test; assay type: in vivo, Echinochloa crus-galli; settings: 500 g ai/ha, Flood; scale of 0 to 100 where 0 is no effect and 100 is complete control
How it was run: as §2

[9] = system: pigweed; assay: Test A pre-/postemergence herbicide test; assay type: in vivo, Amaranthus retroflexus
How it was run: as §1

[10] = system: ducksalad; assay: Test B flooded paddy test; assay type: in vivo, Heteranthera limosa; settings: 500 g ai/ha, Flood; scale of 0 to 100 where 0 is no effect and 100 is complete control
How it was run: as §2

[11] = system: galium; assay: Test A postemergence herbicide test; assay type: in vivo, Galium aparine
How it was run: as §3

[12] = system: rice; assay: Test B flooded paddy test; assay type: in vivo, Oryza sativa; settings: 500 g ai/ha, Flood; scale of 0 to 100 where 0 is no effect and 100 is complete control
How it was run: as §2

[13] = system: barnyardgrass; assay: Test A pre-/postemergence herbicide test; assay type: in vivo, Echinochloa crus-galli
How it was run: as §1

[14] = system: giant foxtail; assay: Test A pre-/postemergence herbicide test; assay type: in vivo, Setaria faberii
How it was run: as §1

[15] = 125 g ai/ha, visual rating, 0 to 100 scale, 0 no effect, 100 complete control, approximately 10 days, preemergence
[16] = Postemergence, 125 g ai/ha, 0 to 100 scale, 0 is no effect, 100 is complete control
[17] = preemergence, 500 g ai/ha, 0 to 100 scale, 0 is no effect and 100 is complete control
[18] = 125 g ai/ha, 0 to 100 scale, 0 is no effect, 100 is complete control
[19] = Postemergence, 125 g ai/ha, visual rating on 0 to 100 scale (0 no effect, 100 complete control), approx. 10 days
[20] = Postemergence, 500 g ai/ha, 0 to 100 scale (0 no effect, 100 complete control)
[21] = Preemergence, 125 g ai/ha, 0 to 100 scale where 0 is no effect and 100 is complete control
[22] = 125 g ai/ha, visual rating on 0 to 100 scale (0 no effect, 100 complete control), approx. 10 days
[23] = 500 g ai/ha, 0 to 100 scale (0 no effect, 100 complete control)

Structure (SMILES): O=C1NCC(c2cccc3ccccc23)C1C(=O)Nc1ccccc1F (centres unmarked) [Compound 216]
- Plant response rating, Ragweed [1, 15]: 0
- Plant response rating, Ragweed [1, 16]: 0
- Ragweed plant response rating (0 to 100 scale, 0 is no effect, 100 is complete control) ([1]; Postemergence, 500 g ai/ha): 0
- Plant response rating, Ragweed [1, 17]: 0
- Plant response rating, Wheat [2, 18]: 0
- Wheat plant response rating (0 to 100 scale, 0 is no effect, 100 is complete control) ([2]; 500 g ai/ha): 0
- Plant response rating, Corn [3, 18]: 0
- Corn plant response rating (0 to 100 scale, 0 is no effect, 100 is complete control) ([3]; 500 g ai/ha): 0
- Plant response rating, Sedge, Umbrella [4]: 0
- Plant response rating, Ryegrass, Italian [5, 15]: 0
- Plant response rating, Ryegrass, Italian [5, 16]: 0
- Ryegrass, Italian plant response rating (0 to 100 scale, 0 is no effect, 100 is complete control) ([5]; Postemergence, 500 g ai/ha): 0
- Plant response rating, Ryegrass, Italian [5, 17]: 0
- Plant response rating, Blackgrass [6, 18]: 0
- Blackgrass plant response rating (0 to 100 scale, 0 is no effect, 100 is complete control) ([6]; 500 g ai/ha): 0
- Plant response rating, Kochia [7, 15]: 0
- Plant response rating, Kochia [7, 16]: 0
- Kochia plant response rating (0 to 100 scale, 0 is no effect, 100 is complete control) ([7]; Postemergence, 500 g ai/ha): 0
- Plant response rating, Kochia [7, 17]: 0
- Plant response rating, Barnyardgrass [8]: 0
- Plant response rating, Pigweed [9, 15]: 0
- Plant response rating, Pigweed [9, 16]: 0
- Pigweed plant response rating (0 to 100 scale, 0 is no effect, 100 is complete control) ([9]; Postemergence, 500 g ai/ha): 0
- Plant response rating, Pigweed [9, 17]: 0
- Plant response rating, Ducksalad [10]: 0
- Plant response rating, Galium [11, 18]: 0
- Galium plant response rating (0 to 100 scale, 0 is no effect, 100 is complete control) ([11]; 500 g ai/ha): 0
- Plant response rating, Rice [12]: 0
- Plant response rating, Barnyardgrass [13, 15]: 20
- Plant response rating, Barnyardgrass [13, 16]: 0
- Barnyardgrass plant response rating (0 to 100 scale, 0 is no effect, 100 is complete control) ([13]; Postemergence, 500 g ai/ha): 0
- Plant response rating, Barnyardgrass [13, 17]: 60
- Plant response rating, Foxtail, Giant [14, 15]: 40
- Plant response rating, Foxtail, Giant [14, 16]: 0
- Foxtail, Giant plant response rating (0 to 100 scale, 0 is no effect, 100 is complete control) ([14]; Postemergence, 500 g ai/ha): 10
- Plant response rating, Foxtail, Giant [14, 17]: 50

Structure (SMILES): CSc1cccc(C2CNC(=O)C2C(=O)Nc2cccc(F)c2F)c1 (centres unmarked) [Compound 289]
- Plant response rating, Ragweed [1, 19]: 0
- Plant response rating, Ragweed [1, 20]: 0
- Plant response rating, Ragweed [1, 21]: 0
- Plant response rating, Ragweed [1, 17]: 0
- Plant response rating, Wheat [2, 22]: 0
- Plant response rating, Wheat [2, 23]: 0
- Plant response rating, Corn [3, 22]: 0
- Plant response rating, Corn [3, 23]: 0
- Plant response rating, Sedge, Umbrella [4]: 0
- Plant response rating, Ryegrass, Italian [5, 19]: 0
- Plant response rating, Ryegrass, Italian [5, 20]: 0
- Plant response rating, Ryegrass, Italian [5, 21]: 0
- Ryegrass, Italian plant response rating ([5]; Preemergence, 500 g ai/ha, visual rating on 0 to 100 scale (0 no effect, 100 complete control)): 0
- Plant response rating, Blackgrass [6, 22]: 0
- Plant response rating, Blackgrass [6, 23]: 0
- Plant response rating, Kochia [7, 19]: 0
- Plant response rating, Kochia [7, 20]: 0
- Plant response rating, Kochia [7, 21]: 0
- Plant response rating, Kochia [7, 17]: 0
- Plant response rating, Barnyardgrass [8]: 30
- Plant response rating, Pigweed [9, 19]: 0
- Plant response rating, Pigweed [9, 20]: 0
- Plant response rating, Pigweed [9, 17]: 0
- Plant response rating, Ducksalad [10]: 90
- Plant response rating, Galium [11, 22]: 0
- Plant response rating, Galium [11, 23]: 0
- Plant response rating, Rice [12]: 20
- Plant response rating, Barnyardgrass [13, 19]: 50
- Plant response rating, Barnyardgrass [13, 20]: 70
- Plant response rating, Barnyardgrass [13, 21]: 50
- Plant response rating, Barnyardgrass [13, 17]: 80
- Plant response rating, Foxtail, Giant [14, 19]: 30
- Plant response rating, Foxtail, Giant [14, 20]: 60
- Plant response rating, Foxtail, Giant [14, 21]: 60
- Plant response rating, Foxtail, Giant [14, 17]: 90
